Columns and labels:
[1] = tested on: DU145 cells infected with Adv-PKD1 or Adv-PKD3; type: cell-based
Method: DU145 cells were infected with null, PKD1, and PKD3 adenoviruses (Adv-null, Adv-PKD1, and Adv-PKD3) at 100 MOI. […] The number of cells that migrated was determined by cell counts in 6 fields. Percentage migration was calculated as the percent of the Adv-null treated with vehicle DMSO (set to 100%). The experiment was repeated three times and data from a representative experiment are shown.

DU145 cells = assay: Matrigel invasion assay; type: cell-based; settings: Homo sapiens, DU-145, 20 h, read-out: inhibition of cell invasion compared with control
Method: A.1-NA- PP1 blocked prostate cancer cell migration. PC3 cells were grown to confluence in 6-well plates. Monolayer was wounded and imaged immediately (0 h). […] Percentage wound healing was calculated as the percent of healed wound area as compared to the original wound. […] After 20 h, noninvasive cells were removed and invasive cells were fixed in 100% methanol, stained in 0.4% hematoxylin solution, and photographed. The number of cells that invaded the Matrigel matrix was determined by cell counts in 6 fields relative to the number of cells that migrated through the control insert. Percentage invasion was calculated as the percent of the cells invaded through Matrigel inserts vs. the total cells migrated through the control inserts. C. […] DU145 cells were infected with null, PKD1, and PKD3 adenoviruses (Adv-null, Adv-PKD1, and Adv-PKD3) at 100 MOI. […]
DU145 cells (4.0×10^4 cells/ml) in RPMI containing 0.1% fetal bovine serum (FBS) were seeded into the top chamber of BioCoat control inserts (pore size 8 µm) or BioCoat Matrigel invasion inserts with Matrigel-coated filters (BD Pharmingen). […] After staining, cells were counted under a microscope (200× magnification). The percentage invasion was determined by cell counts in […] of the number of cells that invaded the Matrigel matrix relative to the number of cells that migrated through the control insert.

CC(C)(C)n1nc(-c2cccc3ccccc23)c2c(N)ncnc21 [Compound 1-NA-PP1, 1-(t-Butyl)-3-(naphthalen-1-yl)-1H-pyrazolo[3,4-d]pyrimidin-4-amine]
effect of PKD1 or PKD3 overexpression on inhibition of cell migration [1]: did not affect | inhibition at 30 µM (DU145 cells): > 60%

— PMC3781056, “New Pyrazolopyrimidine Inhibitors of Protein Kinase D as Potent Anticancer Agents for Prostate Cancer Cells” (PLoS ONE, 2013)
